Literature values in patent US8299214B2 (priority 2006, dated 2012).

Molecular target: hemagglutinin (Influenza A virus, UniProt P03437)
Conditions: read-out: binding constant between hemagglutinin and free sialyl lactose (K0); evaluation by NMR, reported; cited from earlier work

CC(=O)N[C@H]1[C@H]([C@H](O)[C@H](O)CO)O[C@@](O[C@H]2[C@@H](O)[C@@H](CO)O[C@@H](O[C@H]3[C@H](O)[C@@H](O)C(O)O[C@@H]3CO)[C@@H]2O)(C(=O)O)C[C@@H]1O (stereo partly drawn) [α (2, 3)-sialyllactose]
Kd: 3.2 mM
